Measured values published in patent US7183075B2, “Purified and isolated potassium-chloride cotransporter nucleic acids and polypeptides and therapeutic and screening methods using same” (Vanderbilt University, priority 2000, dated 2007).

Columns and labels:
[1] = target: T1, hKCC3b (Homo sapiens, UniProt Q9UHW9); assay type: cell-based; details: 2 mM furosemide; 100 nM calyculin A
T1 construct: expressed in transfected cells; host or cells: Xenopus oocytes microinjected with KCC3b cRNA
T1 sequence (Q9UHW9 1-1099 isoform Q9UHW9-2): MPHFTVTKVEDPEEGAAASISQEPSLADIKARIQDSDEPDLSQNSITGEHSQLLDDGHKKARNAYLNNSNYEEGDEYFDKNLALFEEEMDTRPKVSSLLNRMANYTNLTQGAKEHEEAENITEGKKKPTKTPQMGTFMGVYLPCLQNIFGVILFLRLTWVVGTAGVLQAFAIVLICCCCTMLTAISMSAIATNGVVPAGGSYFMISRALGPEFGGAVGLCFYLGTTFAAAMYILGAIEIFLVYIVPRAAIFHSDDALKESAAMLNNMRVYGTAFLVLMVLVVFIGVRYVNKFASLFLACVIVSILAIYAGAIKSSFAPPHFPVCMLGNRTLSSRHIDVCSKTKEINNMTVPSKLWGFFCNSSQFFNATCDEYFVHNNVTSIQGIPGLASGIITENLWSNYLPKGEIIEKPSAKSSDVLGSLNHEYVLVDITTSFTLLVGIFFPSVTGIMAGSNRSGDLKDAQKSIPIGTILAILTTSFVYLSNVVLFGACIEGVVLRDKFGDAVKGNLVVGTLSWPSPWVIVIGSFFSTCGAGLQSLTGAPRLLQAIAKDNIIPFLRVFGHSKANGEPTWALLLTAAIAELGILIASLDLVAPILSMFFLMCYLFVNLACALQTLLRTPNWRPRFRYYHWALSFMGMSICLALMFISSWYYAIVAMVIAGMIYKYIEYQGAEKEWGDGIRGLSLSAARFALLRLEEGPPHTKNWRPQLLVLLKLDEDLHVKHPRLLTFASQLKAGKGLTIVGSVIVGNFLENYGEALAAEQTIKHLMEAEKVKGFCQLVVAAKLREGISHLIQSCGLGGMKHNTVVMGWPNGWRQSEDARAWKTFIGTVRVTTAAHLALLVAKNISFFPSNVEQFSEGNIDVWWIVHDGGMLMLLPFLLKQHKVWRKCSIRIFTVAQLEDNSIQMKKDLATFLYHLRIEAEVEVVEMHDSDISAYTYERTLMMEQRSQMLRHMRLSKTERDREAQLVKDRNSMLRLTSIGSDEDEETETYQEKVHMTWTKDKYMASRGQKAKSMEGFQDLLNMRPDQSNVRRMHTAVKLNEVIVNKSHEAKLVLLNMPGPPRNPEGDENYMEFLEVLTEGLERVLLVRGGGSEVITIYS
Experimental: Open bars, uptake assays performed in a control medium containing 10 mM K^+and 50 mM Cl^−; hatched bars, uptake assays performed in medium lacking Cl^−; bars with horizontal stripes, uptake assays performed in the presence of 100 nM calyculin A; black bars, uptake assays performed in the presence of okadaic acid; gray bars, uptake assays performed in the presence of cypermetrin.

[2] = tested on: Na^+—K^+-2Cl^− cotransport activity of Xenopus oocytes; assay: Endogenous Na+-K+-2Cl- cotransport activity of Xenopus oocytes; assay type: cell-based; details: 100 μM DIOA
Experimental: The sensitivity of the KCCs to other inhibitors of red cell K^+—Cl^− cotransport was also assessed in oocytes injected with KCC4 or KCC1. FIG. 18 illustrates the effect of 100 μM DIDS and 100 μM DIOA on the ^86Rb^+ uptake induced by the microinjection of each KCC cRNA. The effect of extracellular K^+ concentration on the inhibition of cotransport was very dramatic for DIDS. […] However, inhibition of KCC4 was higher when extracellular K^+ was lower, although this was not the case for KCC1. DIOA is reportedly specific for K^+—Cl^− cotransport over Na^+—K^+-2Cl^− cotransport (Garay et al. (1988) Mol Pharmacol 33:696–701), and the same concentration of DIOA had no effect on the function of the Na^+—K^+-2Cl^− cotransport activity of Xenopus oocytes (Gamba et al. (1994) J Biol Chem 269: 17713–17722).

[3] = target: T2, rat KCC2 (Rattus norvegicus, UniProt Q63633); details: rat KCC2 in HEK293 cells; read-out: chloride affinity (Km) reported for rKCC2; cited from earlier work
T2 construct: host or cells: HEK293 cells
T2 sequence (Q63633 1-1116 isoform Q63633-2): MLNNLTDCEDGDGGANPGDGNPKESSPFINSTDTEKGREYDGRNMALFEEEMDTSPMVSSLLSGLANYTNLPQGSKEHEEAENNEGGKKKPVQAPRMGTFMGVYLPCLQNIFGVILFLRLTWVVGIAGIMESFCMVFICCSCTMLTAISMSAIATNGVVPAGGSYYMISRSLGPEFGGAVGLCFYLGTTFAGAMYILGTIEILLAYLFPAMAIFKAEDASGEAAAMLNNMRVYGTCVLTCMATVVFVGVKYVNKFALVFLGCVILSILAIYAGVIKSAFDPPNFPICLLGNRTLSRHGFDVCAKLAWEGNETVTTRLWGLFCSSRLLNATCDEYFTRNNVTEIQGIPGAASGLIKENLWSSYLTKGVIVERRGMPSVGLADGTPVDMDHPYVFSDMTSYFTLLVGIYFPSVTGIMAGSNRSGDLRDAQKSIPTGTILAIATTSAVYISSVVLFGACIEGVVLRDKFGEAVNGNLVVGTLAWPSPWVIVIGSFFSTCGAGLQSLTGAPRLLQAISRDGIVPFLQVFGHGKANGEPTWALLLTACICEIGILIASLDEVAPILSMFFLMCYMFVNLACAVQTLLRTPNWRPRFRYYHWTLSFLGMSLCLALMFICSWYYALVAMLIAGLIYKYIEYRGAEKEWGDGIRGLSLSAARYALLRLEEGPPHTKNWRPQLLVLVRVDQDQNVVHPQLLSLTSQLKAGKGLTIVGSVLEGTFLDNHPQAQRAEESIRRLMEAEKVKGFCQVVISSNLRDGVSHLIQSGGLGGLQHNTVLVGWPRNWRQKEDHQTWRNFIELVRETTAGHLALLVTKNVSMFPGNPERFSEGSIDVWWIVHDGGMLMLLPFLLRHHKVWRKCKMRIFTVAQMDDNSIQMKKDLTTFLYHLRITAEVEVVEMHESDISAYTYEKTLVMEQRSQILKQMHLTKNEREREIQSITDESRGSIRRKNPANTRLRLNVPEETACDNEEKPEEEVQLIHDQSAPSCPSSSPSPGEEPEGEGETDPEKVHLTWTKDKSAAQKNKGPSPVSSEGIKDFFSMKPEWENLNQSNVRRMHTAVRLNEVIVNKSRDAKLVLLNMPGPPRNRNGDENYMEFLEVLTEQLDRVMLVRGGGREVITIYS

COC[C@@H]([C@H](O)[C@H](O)C(=O)NCC[C@H](C)c1nc(/C=C/C[C@@H]2O[C@]3(C[C@@H](O)[C@@H]2C)O[C@H]([C@H](C[C@H](O)[C@H](C)[C@H](O)[C@H](C)/C=C(C)/C(C)=C/C=C/C(C)=C\C#N)OC)[C@H](OP(=O)(O)O)C3(C)C)co1)N(C)C [calyculin A]
hKCC3b-mediated K+-Cl- cotransport in the presence of putative inhibitors [1]: blocked

CCCCC1(C2CCCC2)Cc2cc(OCC(=O)O)c(Cl)c(Cl)c2C1=O (stereo not drawn) [DIOA]
effect on Na+-K+-2Cl- cotransport activity of Xenopus oocytes [2]: no effect

Cl [Chloride]
Km [3]: > 50 mM
